From publication PMC6563616, “Thymine DNA glycosylase as a novel target for melanoma” (Oncogene, 2019)

Columns and labels:
[1] = target: T1, thymine DNA glycosylase (TDG) (Homo sapiens, UniProt Q13569); assay: molecular beacon screen with recombinant TDG, confirmed in radioactive DNA glycosylase assay; format: biochemical
[2] = target: T1, thymine DNA glycosylase (TDG); assay: radioactive DNA glycosylase assay with purified recombinant TDG; TDG/APE1 molecular beacon assay (dose-dependent); 5caC increase in cells; format: biochemical

T1 sequence (Q13569 whole entry): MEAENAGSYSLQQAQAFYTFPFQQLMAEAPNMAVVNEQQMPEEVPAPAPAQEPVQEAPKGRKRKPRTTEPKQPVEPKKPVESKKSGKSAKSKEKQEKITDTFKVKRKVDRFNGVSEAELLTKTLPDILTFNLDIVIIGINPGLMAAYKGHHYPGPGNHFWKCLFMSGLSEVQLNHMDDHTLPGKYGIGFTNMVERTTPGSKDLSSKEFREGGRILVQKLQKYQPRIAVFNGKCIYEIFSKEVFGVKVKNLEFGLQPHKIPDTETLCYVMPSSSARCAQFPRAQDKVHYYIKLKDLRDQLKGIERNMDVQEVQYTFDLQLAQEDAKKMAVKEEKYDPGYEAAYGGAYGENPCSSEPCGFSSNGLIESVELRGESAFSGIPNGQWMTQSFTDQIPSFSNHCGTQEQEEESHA

Row | Structure (SMILES) | molecular beacon screen with recombinant TDG, confirmed in radioactive DNA glyco [1] | radioactive DNA glycosylase assay with purified recombinant TDG; TDG/APE1 molecu [2]
1 | C=CC1=C(C(=O)O)N2C(=O)[C@@H](NC(=O)/C(=N\OCC(=O)O)c3csc(N)n3)[C@H]2SC1 [cefixime] | including closantel, juglone, and cefixime, were confirmed as TDG inhibitors in a standard, radioactive DNA glycosylase assay | –
2 | Cc1cc(C(C#N)c2ccc(Cl)cc2)c(Cl)cc1NC(=O)c1cc(I)cc(I)c1O (stereo not drawn) [closantel] | – | including closantel, juglone, and cefixime, were confirmed as TDG inhibitors in a standard, radioactive DNA glycosylase assay
3 | O=C1C=CC(=O)c2c(O)cccc21 [juglone] | – | including closantel, juglone, and cefixime, were confirmed as TDG inhibitors in a standard, radioactive DNA glycosylase assay
